{"source": "patent US11242541B2", "about": "“Skeletal muscle cells and method for inducing same” (KYOTO PREFECTURAL PUBLIC UNIVERSITY CORPORATION, priority 2016, dated 2022)", "key": {"[1]": {"tested_on": "human fibroblasts", "test": "Multinucleation of ML-infected cells with or without ERK5 pathway inhibitor (Example 13)", "assay_type": "cell-based", "settings": "addition of 2-5 μM inhibitor, 14 days after infection", "description": "(§1) In the same manner as in Example 12, human fibroblasts were infected with both a retrovirus vector incorporating MyoD1 gene and a retrovirus vector incorporating L-myc gene (ML). As a control, cells free of infection with a retrovirus vector were also prepared (−). A ERK5 pathway inhibitor, XMDB-92, was added at the indicated concentration to some groups. These were cultured in a myoblast differentiation medium in the same manner as in Example 12. 14 days after infection, nuclear staining was performed in the same manner as in Example 3. Images taken using a fluorescence microscope (Keyence BZ710) are shown (FIG. 13A, upper panel). In addition, the percentages of cells having 4 or more nuclei, cells having 2-3 nuclei and cells having one nucleus were calculated (FIG. 13A, lower panel)."}, "[2]": {"tested_on": "human fibroblasts", "test": "Real-time RT-PCR of Myogenin, CKM, Dystrophin mRNA with ERK5 pathway inhibitor (Example 13)", "assay_type": "cell-based", "settings": "ML-infected cells with inhibitor, 14 days after infection", "description": "as §1\nIn addition, 14 days after infection, RNA was extracted from the cells. As a control, RNA was also extracted from the primary human skeletal muscle cells (pSKMs). mRNAs of Myogenin, CKM, Dystrophin were quantified by real time RT-PCR."}}, "data": [{"smiles": "CCOc1cc(N2CCC(O)CC2)ccc1Nc1ncc2c(n1)N(C)c1ccccc1C(=O)N2C", "note": "[XMD8-92]", "values": [{"measurement": "percentage of cells having 2-3 nuclei", "setting": "[1]", "value": "21-23%"}, {"measurement": "percentage of cells having not less than 4 nuclei", "setting": "[1]", "value": "10-12%"}, {"measurement": "induction of expression of Myogenin, CKM, Dystrophin mRNA by ML gene transfer", "setting": "[2]", "value": "not suppressed"}]}]}
